{"source": "patent US10285979B2", "about": "“Breast cancer therapeutic agent containing 5′-hydroxy-5-nitro-indirubin-3′-oxime as active ingredient” (ANYGEN CO., LTD., priority 2016, dated 2019)", "system": "MDA-MB-231 triple negative breast cancer cells", "conditions": "paclitaxel 5 mg/kg", "note": "Where two headings read alike, the source gives them in different places.", "excerpt": "After implanting MDA-MB-231 triple negative breast cancer cells to the nude mouse, the tumor has been grown to the 200 mm^3 volume. […] The tumor growth has been observed for 27 days.\nThe tumor volume and shape in the nude mouse have been observed for 27 days."}
{"smiles": "CC(=O)O[C@H]1C(=O)[C@@]2(C)[C@H]([C@H](OC(=O)c3ccccc3)[C@]3(O)C[C@H](OC(=O)[C@H](O)[C@@H](NC(=O)c4ccccc4)c4ccccc4)C(C)=C1C3(C)C)[C@]1(OC(C)=O)CO[C@@H]1C[C@@H]2O", "note": "[Paclitaxel, paclitaxel, reference compound]", "values": [{"measurement": "volume of tumor, Mean ± S.E.", "setting": "day 0", "result": "277.1 ± 16.2"}, {"measurement": "volume of tumor, Mean ± S.E.", "setting": "day 3", "result": "354.3 ± 6.3"}, {"measurement": "volume of tumor, Mean ± S.E.", "setting": "day 6", "result": "437.9 ± 20.8"}, {"measurement": "volume of tumor, Mean ± S.E.", "setting": "day 12", "result": "716.8 ± 72.9"}, {"measurement": "volume of tumor, Mean ± S.E.", "setting": "day 15", "result": "906.2 ± 88.2"}, {"measurement": "volume of tumor, Mean ± S.E.", "setting": "day 18", "result": "1161.2 ± 86.4"}, {"measurement": "volume of tumor, Mean ± S.E.", "setting": "day 21", "result": "1421.7 ± 82.6"}, {"measurement": "volume of tumor, Mean ± S.E.", "setting": "day 24", "result": "1760.2 ± 83.8"}, {"measurement": "volume of tumor, Mean ± S.E.", "setting": "day 27", "result": "2136.0 ± 125.9"}]}
